Measured values as given in patent US7250438B2, “Anti-bacterial and anti-cancer spiro beta-lactone/gamma-lactams” (Nereus Pharmaceuticals, Inc., priority 2004, dated 2007).

Tests used:
B16-F10 cells = experiment: Growth inhibition of murine melanoma B16-F10 cells (Resazurin); type: cell-based; conditions: Mus musculus, 48 hours of drug exposure
Procedure: B16-F10 (ATCC; CRL-6475) a murine melanoma cell line was maintained in complete Dulbecco's Modification of Eagle's Medium (DMEM) (DMEM supplemented with 10% (v/v) Fetal bovine serum, 2 mM glutamine, 10 mM HEPES and Penicillin/Streptomycin at 100 IU/ml and 100 μg/ml respectively). The cells were cultured in an incubator at 37° C, 5% CO2 and 95% humidified air.
For cell growth inhibition assays, B16-F10 cells were seeded at 1.25×10^3 cells/well in 90 μl complete media into Coming 3904 black-walled, clear-bottom tissue culture plates and the plates were incubated overnight to allow cells to establish and enter log phase growth. 20mM stock solutions of the compound of Formula (VI) were prepared in 100% DMSO. 10× concentrated serial dilutions of the compound of Formula (VI) were prepared in appropriate culture medium. […]
Following 48 hours of drug exposure, 10 μl of 0.2 mg/ml Resazurin (obtained from Sigma-Aldrich Chemical Co.) in Mg^2+, Ca^2+ free phosphate buffered saline was added to each well and the plates were returned to the incubator for 3–6 hours. Since living cells metabolize Resazurin, the fluorescence of the reduction product of Resazurin was measured using a Fusion microplate fluorometer (Packard Bioscience) with λex=535 nm and λem=590 nm filters. […]

[1] = test system: Streptococcus pneumoniae - penicillin resistant; experiment: MIC, serial micro broth dilution (NCCLS M7-A5); type: cell-based; conditions: Mueller-Hinton broth II with lysed horse blood, 35° C., 18 hours
Procedure: (§1) Minimum inhibitory concentrations (MICs) were determined according to the National Committee for Clinical Laboratory Standards (NCCLS) susceptibility test guideline M7-A5 to quantify the anti-microbial activity of the compound of Formula (VI) against both gram-positive and gram-negative bacteria. Ferraro, M. 2001 Methods for Dilution Antimicrobial Susceptibility Tests for Bacteria that Grow Aerobically; Approved Standard (NCCLS), Villanova, which is incorporated herein by reference in its entirety. The serial micro broth dilution method used BBL Mueller-Hinton broth (cation adjusted) except for the […] which was tested in BBL Mueller-Hinton broth II (cation adjusted) with lysed horse blood. The final bacterial inoculum contained approximately 5×10^5 CFU/ml and was run on microtiter plates. The volume of each well was 100 μl and the plates were incubated at 35° C. for 18 hours. The MIC was defined as the lowest drug concentration that prevented visible growth of the bacterium. The compound was active versus several microorganisms, especially gram-positive species.

[2] = test system: Staphylococcus aureus - MRSA; experiment: MIC, serial micro broth dilution (NCCLS M7-A5); type: cell-based; conditions: Mueller-Hinton broth, 35° C., 18 hours
Procedure: as §1

E. faecalis - Van^s = experiment: MIC, serial micro broth dilution (NCCLS M7-A5); type: cell-based; conditions: Enterococcus faecalis, Mueller-Hinton broth, 35° C., 18 hours
Procedure: as §1

E. coli - imp = experiment: MIC, serial micro broth dilution (NCCLS M7-A5); type: cell-based; conditions: Escherichia coli, 18 h
Procedure: as §1

[3] = test system: Staphylococcus aureus - MSSA; experiment: MIC, serial micro broth dilution (NCCLS M7-A5); type: cell-based; conditions: Mueller-Hinton broth, 35° C., 18 hours
Procedure: as §1

[4] = test system: Streptococcus pneumoniae - penicillin sensitive; experiment: MIC, serial micro broth dilution (NCCLS M7-A5); type: cell-based; conditions: Mueller-Hinton broth II with lysed horse blood, 35° C., 18 hours
Procedure: as §1

E. faecium - Van^r = experiment: MIC, serial micro broth dilution (NCCLS M7-A5); type: cell-based; conditions: Enterococcus faecium, Mueller-Hinton broth, 35° C., 18 hours
Procedure: as §1

[5] = Qualitative solubility of the isolated compound; type: physicochemical; conditions: CHCl3, MeOH, and DMSO

COC(CC(C)C(O)/C=C/C=C/CNC(=O)C(C)(C)C(O)\C(C)=C/C=C\C=C\C(C)=C(/C)[N+](=O)[O-])C1(O)C(C)C(=O)N(C)C12C(=O)OC2C (stereo not drawn) [Formula (VI)]
EC50 (B16-F10 cells): 9.6 µM
MIC [1]: 1.5 µg/mL
MIC [2]: 5 µg/mL
MIC (E. faecalis - Van^s): 14 µg/mL
MIC (E. coli - imp): 12 µg/mL
MIC [3]: 4 µg/mL
MIC [4]: 2 µg/mL
MIC (E. faecium - Van^r): 20 µg/mL
solubility (qualitative) [5]: qualitatively soluble in CHCl3, MeOH, and DMSO
